# Reference: patent publication US20160022665A2, “Pharmaceutical Compositions and Administrations Thereof” (Vertex Pharmaceuticals Incorporated, priority 2012, published 2016)
# What was measured:
# [1] = Physical and chemical stability of Compound 3 in aqueous methylcellulose formulations; type: physicochemical; details: for physical stability of the HCl salt form in suspension: 0.5% methylcellulose/0.5% polysorbate 80 suspension vehicle, T(0), XRPD and 1H NMR
# Method: A 100 mL stock solution of 0.5% by weight methylcellulose was prepared by stirring 0.5 g of methylcellulose with 99.5 g of purified water until completely dissolved (approximately 24 hours). The appropriate amount of Compound 3 HCl salt based on free base was weighed and transferred to a scintillation vial. The desired amount of 0.5% methylcellulose stock solution for making a 6 mg/mL based on free base (6.48 mg/mL based on HCl salt) was transferred into the vial and sonicated for 20 minutes and homogenized for approximately 5 minutes.
# Methylcellulose (0.5 g) was combined with 99.0 g of purified water in a beaker and stirred in a 60-70° C. water bath for 30′-1 hr. The solution was stirred in a 0° C. ice/water bath for another 30′ or until clear. Polysorbate 80 (0.5 g) was added and stirring at room temperature followed for 30′-1 hr or until a clear solution was obtained.
# The appropriate amount of Compound 3 HCl salt based on free base was weighed and transferred to a scintillation vial. The desired amount of 0.5% methylcellulose and 0.5% polysorbate 80 stock solution for making a 6 mg/mL based on free base (6.48 mg/mL based on HCl salt) was transferred into the vial and sonicated for 20 minutes with alternate stirring for 1-2 minutes. The solution was homogenized for approximately 1-2 minutes.
# ΔF508-CFTR = target: T1, ΔF508-CFTR (Homo sapiens, UniProt P13569, DEL508-508); assay: Membrane potential optical assay (fluorescent voltage sensing dyes, FLIPR III), identification of potentiator compounds (Protocol 1); type: cell-based
# T1 construct: expressed in transfected cells
# Description: The assay utilizes fluorescent voltage sensing dyes to measure changes in membrane potential using a fluorescent plate reader (e.g., FLIPR III, Molecular Devices, Inc.) as a readout for increase in functional ΔF508-CFTR in NIH 3T3 cells. The driving force for the response is the creation of a chloride ion gradient in conjunction with channel activation by a single liquid addition step after the cells have previously been treated with compounds and subsequently loaded with a voltage sensing dye.
# To identify potentiators of ΔF508-CFTR, a double-addition HTS assay format was developed. This HTS assay utilizes fluorescent voltage sensing dyes to measure changes in membrane potential on the FLIPR III as a measurement for increase in gating (conductance) of ΔF508 CFTR in temperature-corrected ΔF508 CFTR NIH 3T3 cells. The driving force for the response is a Cl^− ion gradient in conjunction with channel activation with forskolin in a single liquid addition step using a fluorescent plate reader such as FLIPR III after the cells have previously been treated with potentiator compounds (or DMSO vehicle control) and subsequently loaded with a redistribution dye.
# Bath Solution #1: (in mM) NaCl 160, KCl 4.5, CaCl2 2, MgCl2 1, HEPES 10, pH 7.4 with NaOH.
# Chloride-free bath solution: Chloride salts in Bath Solution #1 (above) are substituted with gluconate salts. […]
# T1 sequence (P13569 with tags, fused parts or gaps DEL508-508): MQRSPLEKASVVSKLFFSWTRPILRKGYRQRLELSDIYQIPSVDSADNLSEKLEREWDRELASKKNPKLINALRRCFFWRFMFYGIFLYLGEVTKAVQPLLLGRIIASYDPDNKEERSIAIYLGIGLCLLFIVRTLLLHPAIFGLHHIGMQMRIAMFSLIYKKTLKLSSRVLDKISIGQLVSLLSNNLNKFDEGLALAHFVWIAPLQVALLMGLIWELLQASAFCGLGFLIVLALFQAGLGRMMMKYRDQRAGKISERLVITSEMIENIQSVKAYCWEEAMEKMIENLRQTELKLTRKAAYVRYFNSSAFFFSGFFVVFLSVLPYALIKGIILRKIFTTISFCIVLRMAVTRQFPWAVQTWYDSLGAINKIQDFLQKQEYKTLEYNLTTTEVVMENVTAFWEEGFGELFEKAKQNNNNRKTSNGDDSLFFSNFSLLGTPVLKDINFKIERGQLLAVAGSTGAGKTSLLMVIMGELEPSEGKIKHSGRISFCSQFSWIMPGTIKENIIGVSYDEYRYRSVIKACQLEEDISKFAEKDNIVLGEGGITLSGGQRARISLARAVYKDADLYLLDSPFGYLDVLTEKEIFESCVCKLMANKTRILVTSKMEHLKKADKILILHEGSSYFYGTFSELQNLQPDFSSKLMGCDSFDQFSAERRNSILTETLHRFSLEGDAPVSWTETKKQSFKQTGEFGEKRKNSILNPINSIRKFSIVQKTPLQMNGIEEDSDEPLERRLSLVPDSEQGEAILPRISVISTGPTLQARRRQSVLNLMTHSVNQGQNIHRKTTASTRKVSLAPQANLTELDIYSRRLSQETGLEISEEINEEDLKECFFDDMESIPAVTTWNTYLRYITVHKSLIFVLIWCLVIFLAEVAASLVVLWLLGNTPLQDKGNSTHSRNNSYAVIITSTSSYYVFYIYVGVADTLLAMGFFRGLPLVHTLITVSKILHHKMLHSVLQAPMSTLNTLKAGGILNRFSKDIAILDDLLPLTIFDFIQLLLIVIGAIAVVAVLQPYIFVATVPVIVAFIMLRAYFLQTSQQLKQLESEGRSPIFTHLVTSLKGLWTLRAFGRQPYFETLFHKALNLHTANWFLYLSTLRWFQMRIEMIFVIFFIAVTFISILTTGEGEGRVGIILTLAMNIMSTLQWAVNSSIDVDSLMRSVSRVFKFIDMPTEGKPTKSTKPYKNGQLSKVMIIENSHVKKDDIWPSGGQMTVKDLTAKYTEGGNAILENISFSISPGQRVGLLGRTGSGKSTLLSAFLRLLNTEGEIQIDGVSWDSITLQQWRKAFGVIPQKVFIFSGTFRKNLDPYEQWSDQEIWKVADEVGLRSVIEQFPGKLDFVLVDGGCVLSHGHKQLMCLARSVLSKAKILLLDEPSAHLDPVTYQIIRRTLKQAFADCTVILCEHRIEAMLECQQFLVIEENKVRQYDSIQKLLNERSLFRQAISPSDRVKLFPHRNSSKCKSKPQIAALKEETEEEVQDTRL
smiles,measurement,setting,value
"Cc1ccc(NC(=O)C2(c3ccc4c(c3)OC(F)(F)O4)CC2)nc1-c1cccc(C(=O)O)c1 [Compound 3 Form I, 3-(6-(1-(2,2-difluorobenzo[d][1,3]dioxol-5-yl)cyclopropanecarboxamido)-3-methylpyridin-2-yl)benzoic acid]",chemically stable (time),"[1]; room temperature, 0.5% methylcellulose/0.5% polysorbate 80 formulation vehicle, no sign of chemical degradation",at least 24 hrs
same,physically and chemically stable (time),"[1]; room temperature, methylcellulose formulation (0.5% by weight), no sign of chemical degradation",at least 24 hrs
"Cc1ccc(NC(=O)C2(c3ccc4c(c3)OC(F)(F)O4)CC2)nc1-c1cccc(C(=O)O)c1.Cl [Compound 3 HCl salt, 3-(6-(1-(2,2-Difluorobenzo[d][1,3]dioxol-5-yl)cyclopropanecarboxamido)-3-methylpyridin-2-yl)benzoic acid.HCl salt]",physical stability of the HCl salt form in suspension,[1],not physically stable
same,physical stability of the HCl salt form in suspension,[1]; listed as HCl salt,quickly converted to Compound 3 Form I
O=C(Nc1ccc(N2C3CCC2[C@H](O)C3)cc1C(F)(F)F)c1c[nH]c2cccc(C(F)(F)F)c2c1=O (stereo partly drawn) [Compound 2-5],% Efficacy,"ΔF508-CFTR; compounds of Formula II, 100% efficacy is the maximum response obtained with 4-methyl-2-(5-phenyl-1H-pyrazol-3-yl)phenol",+++ (“+++” if efficacy was calculated to be greater than 100%)
"CC(C)(C)c1cc(C(C)(C)C)c(NC(=O)c2c[nH]c3ccccc3c2=O)cc1O [Compound 1, N-[2,4-bis(1,1-dimethylethyl)-5-hydroxyphenyl]-1,4-dihydro-4-oxoquinoline-3-carboxamide]",Emax,"ΔF508-CFTR; Compound 1, potentiator activity, Protocol 1, read-out: % Activity (relative efficacy)",25 to 100%
